Measured values from the supplement of paper PMC10307832.

Columns and labels:
Assay in all cases: relative viability (nuclei count vs DMSO), 5 days (fraction); higher = more cells survive
[1] = test system: PC-3 [JPC-3]
Method in brief: (§1)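 Dosing by pin tool came one day after lung cancer cell lines were seeded in 1536-well plates, using either one drug or a fixed anchor-drug dose plus five library-drug doses (not always all listed) in √10 steps. After 5 days, nuclei were counted on 4× images. Relative viability is treated-well nuclei count divided by vehicle-well nuclei count, and values are medians of duplicate plates.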

[2] = test system: NCI-H520
Method in brief: as §1

[3] = test system: COR-L 105
Method in brief: as §1

[4] = test system: NCI-H1755
Method in brief: as §1

[5] = test system: LOU-NH91
Method in brief: as §1

[6] = test system: EMC-BAC-2
Method in brief: as §1

[7] = test system: SW 900
Method in brief: as §1

[8] = test system: SK-MES-1
Method in brief: as §1

[9] = test system: EKVX
Method in brief: as §1

[10] = test system: LK-2
Method in brief: as §1

[11] = test system: NCI-H1563
Method in brief: as §1

Compound: CC(=O)O[C@@]12CO[C@@H]1C[C@H](O)[C@@]1(C)C(=O)[C@H](O)C3=C(C)[C@@H](OC(=O)[C@H](O)[C@@H](NC(=O)OC(C)(C)C)c4ccccc4)C[C@@](O)([C@@H](OC(=O)c4ccccc4)[C@H]21)C3(C)C [Docetaxel] + COc1cc2c(Oc3ccc(NC(=O)C4(C(=O)Nc5ccc(F)cc5)CC4)cc3F)ccnc2cc1OCCCN1CCOCC1 [Foretinib] (partner 0.25 µM)
- relative viability ([1]; first compound 0.000632 µM): 0.945
- relative viability ([1]; first compound 0.002 µM): 0.544
- relative viability ([1]; first compound 0.006325 µM): 0.179
- relative viability ([1]; first compound 0.02 µM): 0.149
- relative viability ([2]; first compound 0.0002 µM): 0.708
- relative viability ([2]; first compound 0.000632 µM): 0.808
- relative viability ([2]; first compound 0.002 µM): 0.341
- relative viability ([2]; first compound 0.006325 µM): 0.218
- relative viability ([2]; first compound 0.02 µM): 0.173
- relative viability ([3]; first compound 0.0002 µM): 0.986
- relative viability ([3]; first compound 0.000632 µM): 0.95
- relative viability ([3]; first compound 0.002 µM): 0.487
- relative viability ([3]; first compound 0.006325 µM): 0.475
- relative viability ([3]; first compound 0.02 µM): 0.331
- relative viability ([4]; first compound 0.0002 µM): 0.901
- relative viability ([4]; first compound 0.000632 µM): 0.88
- relative viability ([4]; first compound 0.002 µM): 0.564
- relative viability ([4]; first compound 0.006325 µM): 0.351
- relative viability ([4]; first compound 0.02 µM): 0.373
- relative viability ([5]; first compound 0.0002 µM): 0.936
- relative viability ([5]; first compound 0.000632 µM): 0.864
- relative viability ([5]; first compound 0.002 µM): 0.564
- relative viability ([5]; first compound 0.006325 µM): 0.334
- relative viability ([5]; first compound 0.02 µM): 0.284
- relative viability ([6]; first compound 0.0002 µM): 1.02
- relative viability ([6]; first compound 0.000632 µM): 0.948
- relative viability ([6]; first compound 0.002 µM): 0.36
- relative viability ([6]; first compound 0.006325 µM): 0.348
- relative viability ([6]; first compound 0.02 µM): 0.205
- relative viability ([7]; first compound 0.0002 µM): 0.816
- relative viability ([7]; first compound 0.000632 µM): 0.407
- relative viability ([7]; first compound 0.002 µM): 0.249
- relative viability ([7]; first compound 0.006325 µM): 0.247
- relative viability ([7]; first compound 0.02 µM): 0.175
- relative viability ([8]; first compound 0.0002 µM): 0.84
- relative viability ([8]; first compound 0.000632 µM): 0.923
- relative viability ([8]; first compound 0.002 µM): 0.508
- relative viability ([8]; first compound 0.006325 µM): 0.368
- relative viability ([8]; first compound 0.02 µM): 0.168
- relative viability ([9]; first compound 0.0002 µM): 1.07
- relative viability ([9]; first compound 0.000632 µM): 0.887
- relative viability ([9]; first compound 0.002 µM): 0.411
- relative viability ([9]; first compound 0.006325 µM): 0.234
- relative viability ([9]; first compound 0.02 µM): 0.13
- relative viability ([10]; first compound 0.0002 µM): 1.02
- relative viability ([10]; first compound 0.000632 µM): 0.948
- relative viability ([10]; first compound 0.002 µM): 0.348
- relative viability ([10]; first compound 0.006325 µM): 0.188
- relative viability ([10]; first compound 0.02 µM): 0.14
- relative viability ([11]; first compound 0.0002 µM): 0.988
- relative viability ([11]; first compound 0.000632 µM): 0.862
- relative viability ([11]; first compound 0.002 µM): 0.966
- relative viability ([11]; first compound 0.006325 µM): 0.922
- relative viability ([11]; first compound 0.02 µM): 0.628
